# Experimental data: patent publication US7951990B2, “Method and means for determining fitness in plants” (Bayer Bioscience N.V., priority 2001, dated 2011)
# Assays:
# Assay type in all cases: cell-based, Brassica napus
# [1] = test system: cytochromal and alternative respiratory pathways
# [2] = test system: electron flow in the mitochondrial electron transport chain (TTC-reducing capacity of hypocotyl explants); test: vigour assay (TTC-assay) with acetylsalicylic acid added to the incubation medium; conditions: for TTC-reducing capacity after treatment versus control condition / TTC-reducing capacity after treatment: 25 mg/l; for TTC-reducing capacity after treatment versus control condition: about 18 hours
# [3] = test system: superoxide production by the hypocotyl explants; test: quantification of superoxide production by hypocotyl explants (XTT reduction); conditions: 25 mg/l, incubation for 18 hours; all four hybrid lines
Structure (SMILES),influence on the TTC reduction [1],TTC-reducing capacity after treatment versus control condition ([2]; hybrid line 13 (lowest seed yield)),TTC-reducing capacity after treatment versus control condition ([2]; hybrid line 41 (highest seed yield)),TTC-reducing capacity after treatment ([2]; parental line DH7 (poor combining ability)),TTC-reducing capacity after treatment ([2]; parental lines A and B (excellent combining ability)),"TTC-reducing capacity after treatment ([2]; parental lines DH4, DH5 and DH10 (moderate to good combining ability))","TTC-reducing capacity ([2]; 50 mg/l, best performing hybrid lines)","TTC-reducing capacity ([2]; 50 mg/l, hybrid lines with a less pronounced heterosis)","TTC-reducing capacity ([2]; 100 mg/l, best performing hybrid lines)",XTT reduction (superoxides) [3]
"O=C(NO)c1ccccc1O [SHAM, salicylhydroxamic acid]",does not seem to have a major influence,,,,,,,,,
CC(=O)Oc1ccccc1C(=O)O [acetylsalicylic acid],,increased drastically,strongest decrease,high increase,decreased,no or only a small increase,increased,didn't show at 50 mg/l acetylsalicylic acid this increase,decrease again,lower amounts of XTT were reduced
